Experimental data from patent US7097967B2, “Method of predicting drug-food interaction” (LG Life Sciences Ltd., priority 2002, dated 2006).
Structures can show the parent of a compound that is named as a salt. Where two headings read alike, the source gives them in different places. Values belong to the compound of their own block, whether it stands above or below them.

Key:
Trypsin [1] = target: T1, Trypsin (Bos taurus, UniProt P00760); assay: Measurement of activities of Drug A and its prodrugs to trypsin (chromogenic substrate, Ki); format: biochemical; conditions: tris buffer pH 7.8, N-benzoyl-Val-Gly-Arg-p-nitroanilide substrate, room temperature; read-out: Trypsin inhibition constant
T1 construct: gene PRSS1
T1 sequence (P00760 24-246): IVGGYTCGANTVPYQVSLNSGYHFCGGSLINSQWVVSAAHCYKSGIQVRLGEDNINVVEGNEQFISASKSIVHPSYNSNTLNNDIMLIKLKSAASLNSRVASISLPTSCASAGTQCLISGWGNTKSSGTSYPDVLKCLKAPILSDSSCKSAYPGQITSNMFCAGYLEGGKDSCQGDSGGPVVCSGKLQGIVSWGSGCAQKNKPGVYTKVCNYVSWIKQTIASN
Protocol: 140 μl of 0.1 M tris buffer solution (pH 7.8) containing 150 mM NaCl and 0.1% PEG 8000 (PolyEthylene Glycol, Molecular Weight: about 8,000) was pipetted into a microplate. A substrate solution was prepared by dissolving N-benzoyl-Val-Gly-Arg-p-nitroanilide hydro-chloride in DMSO to a concentration of 10 mM, and then diluting the resultant with the above buffer solution to a concentration of 0.5 mM. 20 μl of 0.5 mM substrate solution obtained thus was added to the microplate. An inhibitor solution was prepared by dissolving the inhibitor compound according to the present invention in DMSO to make the concentration of 10 mM, and then diluting the resultant with the above buffer solution to make the concentrations of 100000 nM, 10000 nM, 1000 nM, 100 nM, 10 nM, 1 nM, 0.1 nM, 0.01 nM and 0 nM, respectively. 20 μl of each inhibitor solution was adjusted to whole volume of 180 μl and then added to the microplate.
Trypsin which had been dissolved in 0.1 N HCl solution was added to the above tris buffer, just before the experiment, to make the concentration of 1 μg/ml, and 20 μl of solution obtained thus was added to the microplate containing the reaction solution at the room temperature. The amount of para-nitroaniline produced for 10 minutes after addition of enzymes was monitored by the light. The absorbance was plotted against the reaction time. Such graphs were obtained by performing the above experiment on the various concentrations of inhibitor.
Activities of Drug A and several prodrugs to trypsin were measured by determining the dissociation constant Ki, using the following formula according to the method described in Methods in Enzymology (V.80 p341–361; Biochemistry 27 p2144–2151,1988) Ki=[E]·[I]/[EI] • [E]: concentration of enzyme not bound to inhibitor • [I]: concentration of inhibitor not bound to enzyme • [EI]: concentration of binding product of enzyme and inhibitor
Such dissociation constant can be obtained by reacting with para-nitroanilide, which is chromogenic upon hydrolysis by the action of trypsin, and then measuring the extent of chromogenicity with time by spectroscopy.
The initial velocity, Vi, was obtained from the best-fit slope for the first 30 seconds after the reaction start time for each plot, and then a graph of the concentration of inhibitor versus the inverse of the initial velocity (1/Vi) was constructed. Thereafter, the linear function, which satisfies the graph, was calculated, and then Ki was calculated from the x-intercept of the above function using the enzymatic reaction formula. Km used in this calculation was obtained by changing the concentration of substrate at the constant enzyme concentration of […].

[2] = Effect of composition of food on bioavailability of Drug A in dog; format: in vivo; conditions: dogs; for bioavailability: dog, plasma, po
Protocol: A solution in which 5 g of starch dispersed in 40 ml of water, 40 ml of egg albumin, and a solution in which 5 g of Gelucire® (44/14) dispersed in 40 ml of water, respectively, were fed to two dogs […] before administration of Drug A. These dogs (8–11 kg, Covance Research Product corporation, MI, U.S.A) were bred in a standard laboratory cage, adjusted for a temperature (22±3° C.) and humidity (50±20%), with feed and water available ad libitum. The dogs were fasted for 18–20 hours prior to this experiment. The test group for ascertaining the effect of foods was provided with foods 1 hour before administration of a drug, and the drug was administered after ingestion of foods. At a previously fixed time after administration, 500 μl of blood was gathered from the cephalic vein using the heparinized syringe, and the blood plasma was separated by a centrifuge, and then the plasma concentration of the drug was measured by HPLC analysis.
A Shiseido Capcell-Pak C18 reverse phase column was used for the drug-detection, employing a Shimadzu HPLC system (Class-LC10A system control software, CBM-10A communication bus module, two LC-10AD pumps, SIL-10AXL autoinjector with sample cooler, SPD-10AV ultraviolet detector). The mobile phase was acetonitrile : 0.1% trifluoroacetic acid /5 mM sodium dodecyl sulfate=47 : 53 and the flow rate was 1 ml/min. Data, obtained after oral administration, was expressed in a graph of drug concentration versus time, and applied to the non-compartment model using Win-Nonlin program (Scientific Consultion Corporation, NC, U.S.A.), whereby pharmacokinetic parameters such as a half-life (t1/2), maximum concentration (Cmax), time of the maximum concentration (Tmax), AUCinf, AUClast, and bioavailability (BA) were calculated. AUC was obtained by applying the trapezoidal rule-extrapolation method, and BA was calculated by using the formula (AUCPO×DoseIV)/(AUCIV×DosePO). The result of the experiment is disclosed in FIG. 1 and TABLE 2.

[3] = cited from earlier work
Trypsin [4] = target: T1, Trypsin; conditions: cited from earlier work
thrombin = thrombin (Homo sapiens, UniProt P00734); conditions: cited from earlier work
[5] = dog, cited from earlier work
[6] = human subjects, oral; cited from earlier work
[7] = rats, oral; cited from earlier work

- Ki (Trypsin [1]): 0.3 nM
- bioavailability ([2]; in fasting state): 43%
- bioavailability ([2]; oral, after intake of Gelucire (lipid)): 20%
- bioavailability ([2]; oral, after intake of egg albumin): 13%
- bioavailability ([2]; oral, after intake of starch): 41%
- bioavailability after ingestion of foods ([2]; after ingestion of foods): decreased markedly
Structure (SMILES): N=C(N)c1ccc(CNC(=O)[C@@H]2CCCN2C(=O)[C@H](NCC(=O)O)C(c2ccccc2)c2ccccc2)s1 [Drug A, (2S)-N-{5-[amino(imino)methyl]-2-thienyl}methyl-1-{(2R)-2-[(carboxylmethyl)amino]-3,3-diphenylpropanol}-2-pyrrolidincarboxamide]

- Ki (Trypsin [1]): 673 nM
Structure (SMILES): CCOC(=O)CN[C@@H](C(=O)N1CCC[C@H]1C(=O)NCc1ccc(/C(N)=N/C(=O)OCC(C)C)s1)C(c1ccccc1)c1ccccc1 [Prodrug 1]

- Ki (Trypsin [1]): 5490 nM
Structure (SMILES): CCOC(=O)CN[C@@H](C(=O)N1CCC[C@H]1C(=O)NCc1ccc(/C(N)=N/O)s1)C(c1ccccc1)c1ccccc1 [Prodrug 3]

The next lines start with the compound.

Structure (SMILES): CC(C)(C)NC(=O)[C@@H]1CN(Cc2cccnc2)CCN1C[C@@H](O)C[C@@H](Cc1ccccc1)C(=O)N[C@H]1c2ccccc2C[C@H]1O [Indinavir, [1(1S,2R), 5(S)]-2,3,5-trideoxy-N-(2,3-dihydro-2-hydroxy-1H-inden-1-yl)-5-[2-[[(1,1-dimethylethylaminocarbonyl)-4-(3-pyridinylmethyl)-1-piperazinyl]-2-(phenylmethyl)-D-erytho-pentonamide sulfate (1:1) salt]
- absorption rate when administered together with foods [3]: absorption rate decreases

Structure (SMILES): CCOC(=O)CN[C@@H](C(=O)N1CCC[C@H]1C(=O)NCc1ccc(/C(N)=N/OC(C)=O)s1)C(c1ccccc1)c1ccccc1 [Prodrug 2]
- Ki (Trypsin [1]): 21300 nM

Structure (SMILES): CCOC(=O)CN[C@@H](C(=O)N1CCC[C@H]1C(=O)NCc1ccc(/C(N)=N/C(=O)OCC2CCCCC2)s1)C(c1ccccc1)c1ccccc1 [Prodrug 4]
- Ki (Trypsin [1]): 21000 nM

Structure (SMILES): CC(=O)N[C@H](Cc1ccccc1)C(=O)N(CC(=O)N[C@@H](CCCN=C(N)N)B(O)O)C1CCCC1 [Prodrug S-18326, Ac-D-Phe-N-cyclopentylglycine-boroArg-OH]
- IC50 (Trypsin [4]): 20 nM
- IC50 (thrombin): 3.6 nM
- bioavailability ([5]; after meals): 6%
- bioavailability ([5]; fasting state): 27%

Structure (SMILES): NCCCC[C@H](NC(=O)C1(C(=O)NCCc2ccccc2)CCCC1)B(O)O [Prodrug S-31922, 5-amino-1-R-(1phenethyl-carbamoyl-cyclopentanecaraboxamide) pentyl boronic acid]
- IC50 (Trypsin [4]): 340 nM
- IC50 (thrombin): 43 nM
- bioavailability ([5]; after meals): 22%
- bioavailability ([5]; fasting state): 36%

Structure (SMILES): N=C(N)NCCCC(C=O)NC(=O)C1CCCN1C(=O)C1NCCC2CCCCC21 (stereo not drawn) [R-Piq-Pro-Arg-H]
- bioavailability after intake of foods [6]: decreases remarkably
- bioavailability after administration of foods [7]: decreases remarkably
